Active and inactive are the calls of the source. The rule behind the calls is not given here.
Assays:
CCRF-CEM [1] = assay: Antiproliferative activity against human CCRF-CEM cells at 1 uM after 96 hrs; type: functional
CCRF-CEM [2] = assay: Antiproliferative activity against human CCRF-CEM cells at 1 uM after 24 hrs; type: functional, cell-based

SMILES	Activity (CCRF-CEM [1])	Activity (CCRF-CEM [2])
CCSCCCCCCCCCCCC(=O)O[C@H]1[C@H](O)[C@@H](CO)O[C@H]1n1ccc(N)nc1=O	36%	Active
CCCCCCCCCCCCCC(=O)OC[C@H]1O[C@@H](n2ccc(N)nc2=O)[C@@H](OC(=O)CCCCCCCCCCCCC)[C@@H]1O	76%	Active
CCCCCCCCCCCCCC(=O)OC[C@H]1O[C@@H](n2ccc(N)nc2=O)[C@@H](O)[C@@H]1O	inactive	
CCSCCCCCCCCCCCC(=O)OC[C@H]1O[C@@H](n2ccc(N)nc2=O)[C@@H](O)[C@@H]1O	inactive	
CCCCCCCCCCCCCC(=O)O[C@H]1[C@H](O)[C@@H](CO)O[C@H]1n1ccc(N)nc1=O	36%	Active
